Biological target: T1, hen egg lysozyme (Gallus gallus, UniProt P00698)
T1 construct: 1 mg/ml of hen egg lysozyme; from tissue; host or cells: hen egg
Assay: Stabilization of lysozyme against heat denaturation, read out as lysis of M. luteus suspension (optical density at 450 nm)
Type: biochemical
Details: saline with 20 mM buffering agent
Method: Each solution included saline and 20 mM of buffering agent as identified in Table 1 below. To each test solution was added 1 mg/ml of hen egg lysozyme as well as a phosphate buffered saline (PBS) control. The test solutions were mixed slowly with a stir bar until the lysozyme was incorporated into the solutions. Five ml of each lysozyme-containing test solution was retained as the unheated control. The remaining 5 ml of each lysozyme-containing test solution were placed in glass lens vials, capped with silicone stoppers and incubated in a shaking water bath at 80° C., 40 revolutions per minute (rpm) for 1 hour. These heating conditions are sufficient to denature the lysozyme, absent a stabilization effect provided by the buffering agents. The vials were allowed to come to ambient temperature before testing. A 0.00025g/ml suspension of M. luteus was prepared from lyophilized cells in PBS. The suspension was continually mixed on a stir plate during the testing period to prevent the suspension from settling. For each set of test solutions, the following were tested (sample): a heated lysozyme-containing test solution (“lysozyme+heat”); an unheated lysozyme-containing test solution (“lysozyme/no heat”); and a test solution without lysozyme (“no lysozyme”). One ml of each sample was placed into a glass test tube to which 9 ml of M. luteus suspension was added and vortexed. A 1-ml sub-sample was placed into a disposable cuvette and evaluated on a UV-vis spectrophotometer at 450 nm. This procedure was performed for each sample at 0, 5 and 10 minutes. Each of the solutions was evaluated in triplicate. Each of the three optical density measurements from the triplicate samples was averaged. […] As shown by the test data set forth below in the Table 3, the lens drop solutions containing tromethamine were very effective at stabilizing the protein against denaturation.

[1] = lysozyme + heat (80° C., 1 hour), 1 mg/ml lysozyme
[2] = lysozyme/no heat, 1 mg/ml lysozyme, M. luteus suspension

T1 sequence (P00698 19-147): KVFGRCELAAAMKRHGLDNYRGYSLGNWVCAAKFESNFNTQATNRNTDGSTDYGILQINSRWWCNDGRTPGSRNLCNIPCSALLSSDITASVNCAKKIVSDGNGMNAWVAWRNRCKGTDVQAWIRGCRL

Compound	optical density at 450 nm, Time 0 Min [1]	optical density at 450 nm, Time 5 Min [1]	optical density at 450 nm, Time 10 Min [1]	optical density at 450 nm, Time 0 Min [2]	optical density at 450 nm, Time 5 Min [2]	optical density at 450 nm, Time 10 Min [2]	optical density at 450 nm, Time 0 Min (no lysozyme)	optical density at 450 nm, Time 5 Min (no lysozyme)	optical density at 450 nm, Time 10 Min (no lysozyme)
O=C(O)CC(O)(CC(=O)O)C(=O)O [Citrate]	0.877	0.851	0.785	0.654	0.049	0.030	0.857	0.850	0.850
NC(CO)(CO)CO [Tris, 2-amino-2-hydroxymethyl-1,3-propanediol]	0.810	0.154	0.117	0.654	0.048	0.028	0.859	0.854	0.854
Borate	0.872	0.681	0.390	0.619	0.053	0.034	0.853	0.853	0.854
Phosphate	0.861	0.858	0.852	0.634	0.052	0.029	0.856	0.852	0.854
